Results taken from US4657924A, “Nafazatrom as a lipoxygenase inhibitor” (priority 1983, dated 1987).

Experiments:
[1] = tested on: hydroperoxidase portion of cyclooxygenase; details: T. E. Eling et al., 1982; cited from earlier work
leucocytes = experiment: Leucocyte stickiness in hamster cheek pouch venules; format: in vivo, Syrian golden hamster; details: intraarterial, 1.0 mg/kg
Method: The number of leucocytes counted will be greater, the lower the stickiness of the cells. Male Syrian golden hamsters (80-100 g) were anaesthetized with Nembutal (i.p.; 60 mg/kg). After insertion of a PE 10 catheter into the a.femoralis, the animal was laid on a Duling dissecting platform (MVR 5, 423 (1973)) and the right check pouch was withdrawn by inserting a Q-Tip. It was carefully drawn into the envisaged part of the platform, stretched and fixed. From the start of the dissection, 5 ml/minute of Superfusat flowed over the prepared cheek pouch. The temperature of the solution is 36° C. While treating the vessels with care, the upper layer tissue was separated longitudinally and folded back to the side. Under about 200-fold magnification, an area of about 1 cm^2 of connective tissue was carefully exposed. The animal was placed on the object stand of a microscope, together with the dissecting platform. A thermocouple was inserted into the left cheek pouch. The body temperature of the animal was thus monitored and kept at ±0.3° C. with the aid of an IR lamp (250 watt). The leucocyte stickiness was measured at about 500-fold magnification. A venule (30-40 μm .phi.) was selected in the exposed area. The number of leucocytes per unit time (minutes) which migrate past a certain section of this vessel was counted.

[2] = tested on: coronary arteries of dogs; details: cited from earlier work
cyclooxygenase = experiment: Cyclooxygenase inhibition; format: biochemical; details: on administration of nafazatrom
[3] = tested on: disorders in cardiac rhythm following coronary ligature; experiment: Coronary artery ligation in rats: disorders in cardiac rhythm; format: in vivo, rat (Wistar); details: for Duration of VF (seconds), early / Duration of VT (seconds), early / Extrasystoles %, early: 0-10 minutes; for Duration of VF (seconds), late / Duration of VT (seconds), late / Extrasystoles %, late: 2-4 hours
Text: (§1) Ligation of the left coronary artery of the rat heart and the disorders in cardiac rhythm which thereby occur form a relatively simple model for investigating substances having antiarrhythmic actions and effects on the developing myocardial ischaemia (Clark et al., J. Pharmacol. Meth. 3, 357, 1980). The effects of nafazatrom on antiarrhythmic and antiischaemic properties in conscious rats was investigated in this model. Particular importance was placed on the severity and quantity of disorders in cardiac rhythm which occurred.
(§2) Male Wistar rats (250-350 g) were superficially anaesthetized with ether and investigated for rhythm disorders. Animals with rhythm abnormalities before the start of the experiment were excluded. In acute surgery, the animals were again anaesthetized with ether. In the lateral dorsal position, the thorax was opened somewhat to the left alongside the central line and the heart was exteriorized. Close below the left heart auricle, a silk ligature (3-0) was looped through the muscle of the left heart under the anterior coronary artery. Animals which developed rhythm disorders during this procedure were excluded. The left coronary artery was ligatured by the method described by Selye et al. (Angiology 11, 398, 1960), the heart was returned to the thorax and the wound was rapidly closed with thread. Since the thorax had not been opened for longer than about 45 seconds, artificial respiration of the animals was unnecessary. The operation mortality was between 25 and 40% within the first hours, and in particular myocardial haemorrhages, rhythm disorders with ventricular fibrillation, and massive cardiac infractions occurred. In a sham-operatedgroup, the same experimental conditions were investigated, with the exception that the coronary artery remained open. Shortly after the ligature had been made, early rhythm disorders were observed, which were accompanied in some cases (untreated) with ventricular fibrillations. In most cases, this ventricular fibrillation spontaneously turned into uniform sinus rhythm of heart contraction. The disorders in cardiac rhythm were evaluated by the plan described by Clark (see above). Ventricular tachycardia was defined as the result of more than 10 successive rhythm disorders with extrasystoles. Electrocardiographic changes included a rise in the ST segment, a drop in the Q waves and a rise in the QT interval. The total number of ectopic activity in each individual animal was determined by counting the ventricular extrasystoles, including tachycardia and fibrillations.
(§3) Three groups were investigated: group I received the diluent (1% strength aqueous Tylose suspension, that is to say methylhydroxyethyl-cellulose) twice daily perorally (0.5 ml/kg) for 10 days and by the same administration and in the same amount, after coronary ligature, for a further 20 days; group II was pretreated with the diluent for 10 days (0.5 ml/kg) and was treated with 30 or 100 mg/kg of nafazatrom (in each case suspended in 0.5 ml/kg of 1% strength Tylose suspension) twice daily perorally for 20 days, after coronary ligature (the first nafazatrom administration was effected immediately after the coronary ligature); group III received the above oral doses of nafazatrom in the course of 10 days before the ligature, and the diluent Tylose suspension for 10 days after the coronary occlusion had been effected. The sham-operated animals remained untreated. The peripheral ECG in the extremities was determined in lead II, and in particular, as a control before the start of treatment, shortly before and during coronary ligature, 10 minutes after coronary ligature had been effected, and--after renewed ether anaesthesia-- between the 2nd and 4th hour after coronary occlusion. Each time, the animals were superficially anaesthetized again with ether when the ECG was recorded. At the end of the treatment period, a last ECG was recorded shortly before the animals were sacrificed. […]

[4] = tested on: cardiac infarction following ligation of the left coronary artery; experiment: Coronary artery ligation in rats: cardiac infarction size and total mortality; format: in vivo, rat (Wistar); details: for Total mortality % / Infarction size, % of total heart: peroral; for reduction of infarction size: treatment after coronary ligature
Text: as §1, §2, §3

[5] = tested on: prostacyclin (PGI2) from the vascular endothelium; details: Vermylen et al., Chamone et al., McIntyre and Salzman; cited from earlier work
[6] = tested on: v.jugularis, a.carotis and a.femoralis; details: Seuter et al., 1979; cited from earlier work
[7] = tested on: 15-hydroxyprostaglandin dehydrogenase; details: Wong and McGiff, 1982; cited from earlier work
[8] = tested on: ischaemia-induced ECG changes; experiment: Animal experiments: ECG changes in ischaemia; format: in vivo
[9] = group II, after-treatment 30 mg/kg, 2 × daily, 15 animals
[10] = group II, after-treatment 30 mg/kg, 2 × daily, 9 animals
[11] = group II, after-treatment 100 mg/kg, 2 × daily, 18 animals
[12] = group III, pre-treatment 30 mg/kg, 10 days, 12 animals
[13] = group III, pre-treatment 30 mg/kg, 10 days, 10 animals
[14] = group III, pre-treatment 100 mg/kg, 10 days, 16 animals
[15] = group III, pre-treatment 100 mg/kg, 10 days, 11 animals

In the case of `CC1=NN(CCOc2ccc3ccccc3c2)C(=O)C1` [nafazatrom, 3-methyl-1-[2-(2-naphthyloxy)-ethyl]-2-pyrazolin-5-one], the “action on hydroperoxidase portion of cyclooxygenase; conversion of arachidonic acid into PGH2” value [1] is listed as “acts as a reducing cofactor of the hydroperoxidase portion of cyclooxygenase and accelerates the conversion of arachidonic acid into PGH2”, the duration of action (leucocytes) is listed as “about 60 minutes” and the “increase in the number of leucocytes” value (leucocytes) is listed as 60-100%. For the same compound, the antithrombotic effectiveness [2] was “also effective in the coronary arteries of dogs”, the inhibition of cyclooxygenase (cyclooxygenase) was “No such inhibition of cyclooxygenase” and the “irregularities in comparison with the control animals” value ([3]; early (0-10 minutes) and late phase (2-4 hours)) was “significantly fewer irregularities”. The “Duration of VF (seconds), early” value [3, 9] was 65 s, the “Duration of VT (seconds), early” value [3, 9] was 72 s and the “Extrasystoles %, early” value [3, 9] was 94%. The “Duration of VF (seconds), late” value [3, 10] was 0 s, the “Duration of VT (seconds), late” value [3, 10] was 4 s and the “Extrasystoles %, late” value [3, 10] was 6%. For the same compound, the “Duration of VF (seconds), early” value [3, 11] was 68 s, the “Duration of VT (seconds), early” value [3, 11] was 60 s and the “Extrasystoles %, early” value [3, 11] was 90%. The “Duration of VF (seconds), late” value [3, 11] was 0 s, the “Duration of VT (seconds), late” value [3, 11] was 0 s and the “Extrasystoles %, late” value [3, 11] was 0%. The “Duration of VF (seconds), early” value [3, 12] was 5 s, the “Duration of VT (seconds), early” value [3, 12] was 9 s and the “Extrasystoles %, early” value [3, 12] was 34%. The “Duration of VF (seconds), late” value [3, 13] was 11 s, the “Duration of VT (seconds), late” value [3, 13] was 10 s and the “Extrasystoles %, late” value [3, 13] was 25%. The “Duration of VF (seconds), early” value [3, 14] was 0 s, the “Duration of VT (seconds), early” value [3, 14] was 13 s and the “Extrasystoles %, early” value [3, 14] was 25%. The “Duration of VF (seconds), late” value [3, 15] was 6 s, the “Duration of VT (seconds), late” value [3, 15] was 10 s and the “Extrasystoles %, late” value [3, 15] was 4%. For the same compound, the “prevention of rhythm disorders” value ([3]; pre-treatment of 100 mg/kg) was “prevent almost all the rhythm disorders”, the “total mortality” value ([4]; after-treated with 30 mg/kg) was 22% and the “total mortality” value ([4]; after-treated with 100 mg/kg) was 12%. For the same compound, the “infarctions in comparison with the control animals treated only with Tylose” value ([4]; both groups (before or after coronary ligature)) was “significantly smaller”, the Total mortality % ([4]; group II, after-treatment 30 mg/kg, 2 × daily, 20 days) was 24% and the “Infarction size, % of total heart” value ([4]; group II, after-treatment 30 mg/kg, 2 × daily, 20 days, 15 animals) was 31.5%. The Total mortality % ([4]; group II, after-treatment 100 mg/kg, 2 × daily, 20 days) was 22%, the “Infarction size, % of total heart” value ([4]; group II, after-treatment 100 mg/kg, 2 × daily, 20 days, 18 animals) was 26.7% and the Total mortality % ([4]; group III, pre-treatment 30 mg/kg, 10 days) was 22%. The “Infarction size, % of total heart” value [4, 12] was 28.0%, the Total mortality % ([4]; group III, pre-treatment 100 mg/kg, 10 days) was 12% and the “Infarction size, % of total heart” value [4, 14] was 22.7%. For the same compound, the reduction of infarction ([4]; pre-treatment 30 mg/kg) was 36%, the reduction of infarction ([4]; pre-treatment 100 mg/kg) was 48% and the “reduction of infarction size” value ([4]; 30 mg/kg) was 28%. The “reduction of infarction size” value ([4]; 100 mg/kg) was 39%, the “stimulation of endogenous prostacyclin (PGI2)” value [5] was “stimulator of endogenous prostacyclin (PGI2)” and the antithrombotic effectiveness [6] was “effective arterially and venously”. The “blocking of 15-hydroxyprostaglandin dehydrogenase” value [7] was “blocks 15-hydroxyprostaglandin dehydrogenase”, the “R-wave in the ECG of the peripheral extremities” value ([8]; in vivo) was “increases less sharply and re-forms more rapidly” and the “ST intervals compared with the controls” value ([8]; in vivo) was “changed less than in the controls”. The “ischaemia-induced rise in the ST zone” value ([8]; indication of infarction) was “reduces the ischaemia-induced rise in the ST zone”.
